# Measurements from patent US20230111310A1, “CARBOXYLIC ACID DERIVATIVE-SUBSTITUTED IMINO ARYL COMPOUND, PREPARATION METHOD THEREFOR, HERBICIDAL COMPOSITION AND USE THEREOF” (Qingdao Kingagroot Chemical Compound Co., Ltd., priority 2020, published 2023).
# Test system: Echinochloa crusgalli
# Assay: Weeding effect in post-emergence stage
# Type: in vivo
# Details: Dose 15 g/ha; level of fresh weight growth control rate
# Method in brief: (§1)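 Weeds were treated post-emergence at 2-3 leaves with compound doses from 7.5 up to 500 g/ha, formulated in acetone–Tween 80 with methyl oleate synergist. Efficacy was assessed as growth control after 3 weeks.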
row,SMILES,"Weeding effect in post-emergence stage, Echinochloa crusgalli"
1,COC(=O)CCNC(=O)[C@@H](C)O/N=C/c1cc(-n2c(=O)n(C)c(=S)n(C)c2=O)c(F)cc1Cl [183(R)],5 (Level 5: growth control rate is above 85%)
2,C[C@@H](O/N=C/c1cc(-n2c(=O)cc(C(F)(F)F)n(C)c2=O)c(F)cc1Cl)C(=O)O [193(R)],5 (Level 5: growth control rate is above 85%)
3,CCCCOC(=O)[C@@H](C)O/N=C/c1cc(-n2c(=O)cc(C(F)(F)F)n(C)c2=O)c(F)cc1Cl [200(R)],5 (Level 5: growth control rate is above 85%)
4,CC(C)COC(=O)[C@@H](C)O/N=C/c1cc(-n2c(=O)cc(C(F)(F)F)n(C)c2=O)c(F)cc1Cl [201(R)],5 (Level 5: growth control rate is above 85%)
5,C[C@@H](O/N=C/c1cc(-n2c(=O)cc(C(F)(F)F)n(C)c2=O)c(F)cc1Cl)C(=O)OC(C)(C)C [202(R)],5 (Level 5: growth control rate is above 85%)
6,CCCCCOC(=O)[C@@H](C)O/N=C/c1cc(-n2c(=O)cc(C(F)(F)F)n(C)c2=O)c(F)cc1Cl [203(R)],5 (Level 5: growth control rate is above 85%)
7,CCCCCCOC(=O)[C@@H](C)O/N=C/c1cc(-n2c(=O)cc(C(F)(F)F)n(C)c2=O)c(F)cc1Cl [204(R)],5 (Level 5: growth control rate is above 85%)

# Test system: Alopecurus japonicus
# Assay: Weeding effect in post-emergence stage
# Type: in vivo
# Details: Dose 15 g/ha; level of fresh weight growth control rate
# Method in brief: as §1
row,SMILES,"Weeding effect in post-emergence stage, Alopecurus japonicus"
1,COC(=O)CCNC(=O)[C@@H](C)O/N=C/c1cc(-n2c(=O)n(C)c(=S)n(C)c2=O)c(F)cc1Cl [183(R)],5 (Level 5: growth control rate is above 85%)
2,C[C@@H](O/N=C/c1cc(-n2c(=O)cc(C(F)(F)F)n(C)c2=O)c(F)cc1Cl)C(=O)O [193(R)],5 (Level 5: growth control rate is above 85%)
3,CCCCOC(=O)[C@@H](C)O/N=C/c1cc(-n2c(=O)cc(C(F)(F)F)n(C)c2=O)c(F)cc1Cl [200(R)],5 (Level 5: growth control rate is above 85%)
4,CC(C)COC(=O)[C@@H](C)O/N=C/c1cc(-n2c(=O)cc(C(F)(F)F)n(C)c2=O)c(F)cc1Cl [201(R)],5 (Level 5: growth control rate is above 85%)
5,C[C@@H](O/N=C/c1cc(-n2c(=O)cc(C(F)(F)F)n(C)c2=O)c(F)cc1Cl)C(=O)OC(C)(C)C [202(R)],5 (Level 5: growth control rate is above 85%)
6,CCCCCOC(=O)[C@@H](C)O/N=C/c1cc(-n2c(=O)cc(C(F)(F)F)n(C)c2=O)c(F)cc1Cl [203(R)],5 (Level 5: growth control rate is above 85%)
7,CCCCCCOC(=O)[C@@H](C)O/N=C/c1cc(-n2c(=O)cc(C(F)(F)F)n(C)c2=O)c(F)cc1Cl [204(R)],5 (Level 5: growth control rate is above 85%)

# Test system: Abutilon theophrasti
# Assay: Weeding effect in post-emergence stage
# Type: in vivo
# Details: Dose 15 g/ha; level of fresh weight growth control rate
# Method in brief: as §1
row,SMILES,"Weeding effect in post-emergence stage, Abutilon theophrasti"
1,COC(=O)CCNC(=O)[C@@H](C)O/N=C/c1cc(-n2c(=O)n(C)c(=S)n(C)c2=O)c(F)cc1Cl [183(R)],5 (Level 5: growth control rate is above 85%)
2,C[C@@H](O/N=C/c1cc(-n2c(=O)cc(C(F)(F)F)n(C)c2=O)c(F)cc1Cl)C(=O)O [193(R)],5 (Level 5: growth control rate is above 85%)
3,CCCCOC(=O)[C@@H](C)O/N=C/c1cc(-n2c(=O)cc(C(F)(F)F)n(C)c2=O)c(F)cc1Cl [200(R)],5 (Level 5: growth control rate is above 85%)
4,CC(C)COC(=O)[C@@H](C)O/N=C/c1cc(-n2c(=O)cc(C(F)(F)F)n(C)c2=O)c(F)cc1Cl [201(R)],5 (Level 5: growth control rate is above 85%)
5,C[C@@H](O/N=C/c1cc(-n2c(=O)cc(C(F)(F)F)n(C)c2=O)c(F)cc1Cl)C(=O)OC(C)(C)C [202(R)],5 (Level 5: growth control rate is above 85%)
6,CCCCCOC(=O)[C@@H](C)O/N=C/c1cc(-n2c(=O)cc(C(F)(F)F)n(C)c2=O)c(F)cc1Cl [203(R)],5 (Level 5: growth control rate is above 85%)
7,CCCCCCOC(=O)[C@@H](C)O/N=C/c1cc(-n2c(=O)cc(C(F)(F)F)n(C)c2=O)c(F)cc1Cl [204(R)],5 (Level 5: growth control rate is above 85%)

# Test system: Digitaria sanguinalis
# Assay: Weeding effect in post-emergence stage
# Type: in vivo
# Details: Dose 15 g/ha; level of fresh weight growth control rate
# Method in brief: as §1
row,SMILES,"Weeding effect in post-emergence stage, Digitaria sanguinalis"
1,COC(=O)CCNC(=O)[C@@H](C)O/N=C/c1cc(-n2c(=O)n(C)c(=S)n(C)c2=O)c(F)cc1Cl [183(R)],5 (Level 5: growth control rate is above 85%)
2,C[C@@H](O/N=C/c1cc(-n2c(=O)cc(C(F)(F)F)n(C)c2=O)c(F)cc1Cl)C(=O)O [193(R)],5 (Level 5: growth control rate is above 85%)
3,CCCCOC(=O)[C@@H](C)O/N=C/c1cc(-n2c(=O)cc(C(F)(F)F)n(C)c2=O)c(F)cc1Cl [200(R)],5 (Level 5: growth control rate is above 85%)
4,CC(C)COC(=O)[C@@H](C)O/N=C/c1cc(-n2c(=O)cc(C(F)(F)F)n(C)c2=O)c(F)cc1Cl [201(R)],5 (Level 5: growth control rate is above 85%)
5,C[C@@H](O/N=C/c1cc(-n2c(=O)cc(C(F)(F)F)n(C)c2=O)c(F)cc1Cl)C(=O)OC(C)(C)C [202(R)],5 (Level 5: growth control rate is above 85%)
6,CCCCCOC(=O)[C@@H](C)O/N=C/c1cc(-n2c(=O)cc(C(F)(F)F)n(C)c2=O)c(F)cc1Cl [203(R)],5 (Level 5: growth control rate is above 85%)
7,CCCCCCOC(=O)[C@@H](C)O/N=C/c1cc(-n2c(=O)cc(C(F)(F)F)n(C)c2=O)c(F)cc1Cl [204(R)],5 (Level 5: growth control rate is above 85%)

# Test system: Setaria viridis
# Assay: Weeding effect in post-emergence stage
# Type: in vivo
# Details: Dose 15 g/ha; level of fresh weight growth control rate
# Method in brief: as §1
row,SMILES,"Weeding effect in post-emergence stage, Setaria viridis"
1,COC(=O)CCNC(=O)[C@@H](C)O/N=C/c1cc(-n2c(=O)n(C)c(=S)n(C)c2=O)c(F)cc1Cl [183(R)],5 (Level 5: growth control rate is above 85%)
2,C[C@@H](O/N=C/c1cc(-n2c(=O)cc(C(F)(F)F)n(C)c2=O)c(F)cc1Cl)C(=O)O [193(R)],5 (Level 5: growth control rate is above 85%)
3,CCCCOC(=O)[C@@H](C)O/N=C/c1cc(-n2c(=O)cc(C(F)(F)F)n(C)c2=O)c(F)cc1Cl [200(R)],5 (Level 5: growth control rate is above 85%)
4,CC(C)COC(=O)[C@@H](C)O/N=C/c1cc(-n2c(=O)cc(C(F)(F)F)n(C)c2=O)c(F)cc1Cl [201(R)],5 (Level 5: growth control rate is above 85%)
5,C[C@@H](O/N=C/c1cc(-n2c(=O)cc(C(F)(F)F)n(C)c2=O)c(F)cc1Cl)C(=O)OC(C)(C)C [202(R)],5 (Level 5: growth control rate is above 85%)
6,CCCCCOC(=O)[C@@H](C)O/N=C/c1cc(-n2c(=O)cc(C(F)(F)F)n(C)c2=O)c(F)cc1Cl [203(R)],5 (Level 5: growth control rate is above 85%)
7,CCCCCCOC(=O)[C@@H](C)O/N=C/c1cc(-n2c(=O)cc(C(F)(F)F)n(C)c2=O)c(F)cc1Cl [204(R)],5 (Level 5: growth control rate is above 85%)

# Test system: Eleusine indica
# Assay: Weeding effect in post-emergence stage
# Type: in vivo
# Details: Dose 15 g/ha; level of fresh weight growth control rate
# Method in brief: as §1
row,SMILES,"Weeding effect in post-emergence stage, Eleusine indica"
1,COC(=O)CCNC(=O)[C@@H](C)O/N=C/c1cc(-n2c(=O)n(C)c(=S)n(C)c2=O)c(F)cc1Cl [183(R)],5 (Level 5: growth control rate is above 85%)
2,C[C@@H](O/N=C/c1cc(-n2c(=O)cc(C(F)(F)F)n(C)c2=O)c(F)cc1Cl)C(=O)O [193(R)],5 (Level 5: growth control rate is above 85%)
3,CCCCOC(=O)[C@@H](C)O/N=C/c1cc(-n2c(=O)cc(C(F)(F)F)n(C)c2=O)c(F)cc1Cl [200(R)],5 (Level 5: growth control rate is above 85%)
4,CC(C)COC(=O)[C@@H](C)O/N=C/c1cc(-n2c(=O)cc(C(F)(F)F)n(C)c2=O)c(F)cc1Cl [201(R)],5 (Level 5: growth control rate is above 85%)
5,C[C@@H](O/N=C/c1cc(-n2c(=O)cc(C(F)(F)F)n(C)c2=O)c(F)cc1Cl)C(=O)OC(C)(C)C [202(R)],5 (Level 5: growth control rate is above 85%)
6,CCCCCOC(=O)[C@@H](C)O/N=C/c1cc(-n2c(=O)cc(C(F)(F)F)n(C)c2=O)c(F)cc1Cl [203(R)],5 (Level 5: growth control rate is above 85%)
7,CCCCCCOC(=O)[C@@H](C)O/N=C/c1cc(-n2c(=O)cc(C(F)(F)F)n(C)c2=O)c(F)cc1Cl [204(R)],5 (Level 5: growth control rate is above 85%)
